Laboratory results reported in patent US9211310B2, “Use of a Chinese medicine composition in preparing medicaments for treating secondary prevention of myocardial infarction” (TASLY PHARMACEUTICAL GROUP CO., LTD, priority 2010, dated 2015).

Tested on: patients after acute myocardial infarction
Experiment: Life quality, Seattle Angina Questionnaire (SAQ), same clinical trial
Assay type: in vivo, human
Conditions: PP
Source text: 3508 patients who were in accordance with the diagnostic standards of AMI for 28 days to 2 years and differentiated as Qi deficiency and blood stagnation syndrome by TCM were studied. 0.5 g Chinese medicine composition prepared by the method of EXAMPLE 1 (Coded as QSYQ) was administrated half an hour after meal, 3 times per day.
There were 19 questions in the Seattle angina questionnaire (SAQ), including 5 parts: physical limitation (PL), anginal stability (AS), anginal frequency (AF), treatment satisfaction (TS) and disease perception (DP). After being given necessary explanation by doctors, the questions were answered independently by patients.
They included the overall survival time, angina pectoris score, TCM symptom score and life quality score, where angina pectoris score, TCM symptom score and life quality score were evaluated at randomization, in 1st, 3rd, 6th, 9th, 12th month after treatment and 18th month after follow-up.
All evaluation results of SAQ were described during the period of observation, and Wilcoxon rank sum test was used for inter-group comparison.
The evaluation results in the SAQ were depicted in different observations, and inter-group comparison was tested by Wilcoxon Rank-sum test.

SMILES: CC(=O)Oc1ccccc1C(=O)O [Control group, aspirine]
- SAQ Question 1-2 Severely limited, percent of patients (12 months after treatment): (0.00%)
- SAQ Question 1-2 Slightly limited, number of patients (12 months after treatment): 45
- SAQ Question 1-2 Slightly limited, percent of patients (12 months after treatment): (3.16%)
- SAQ Question 1-6: Mildly limited, patients (%) (12 months after treatment): (13.45%)
- SAQ Question 1-6: Moderately limited, patients (%) (12 months after treatment): (9.58%)
- SAQ Question 1-6: Not limited, patients (%) (12 months after treatment): (42.39%)
- SAQ Question 1-6: Other reasons, patients (%) (12 months after treatment): (0.92%)
- SAQ Question 1-6: Severely limited, patients (%) (12 months after treatment): (1.76%)
- SAQ Question 1-6: Slightly limited, patients (%) (12 months after treatment): (31.90%)
- SAQ Question 1-7: Mildly limited, patients (%) (12 months after treatment): (20.24%)
- SAQ Question 1-7: Moderately limited, patients (%) (12 months after treatment): (9.84%)
- SAQ Question 1-7: Not limited, patients (%) (12 months after treatment): (21.81%)
- SAQ Question 1-7: Other limited, patients (%) (12 months after treatment): (3.56%)
- SAQ Question 1-7: Severely limited, patients (%) (12 months after treatment): (12.05%)
- SAQ Question 1-7: Slightly limited, patients (%) (12 months after treatment): (32.50%)
- SAQ Question 1-8: Mildly limited, patients (%) (12 months after treatment): (24.98%)
- SAQ Question 1-8: Moderately limited, patients (%) (12 months after treatment): (12.17%)
- SAQ Question 1-8: Not limited, patients (%) (12 months after treatment): (14.53%)
- SAQ Question 1-8: Other reasons, patients (%) (12 months after treatment): (4.22%)
- SAQ Question 1-8: Severely limited, patients (%) (12 months after treatment): (15.68%)
- SAQ Question 1-8: Slightly limited, patients (%) (12 months after treatment): (28.42%)
- 8th question: Dissatisfied, patients (%) (Baseline): (0.87%)
- 8th question: Highly satisfied, patients (%) (Baseline): (14.83%)
- 8th question: Mostly dissatisfied, patients (%) (Baseline): (6.61%)
- 8th question: Mostly satisfied, patients (%) (Baseline): (45.16%)
- 8th question: Partly satisfied, patients (%) (Baseline): (32.53%)
- 9th question: Few, patients (%) (Baseline): (20.91%)
- 9th question: Mild, patients (%) (Baseline): (37.01%)
- 9th question: Moderate, patients (%) (Baseline): (26.99%)
- 9th question: Severe, patients (%) (Baseline): (3.34%)
- 9th question: Uneffective, patients (%) (Baseline): (11.76%)
- 10th question: Dissatisfied, patients (%) (Baseline): (25.25%)
- 10th question: Highly satisfied, patients (%) (Baseline): (2.07%)
- 10th question: Mostly dissatisfied, patients (%) (Baseline): (24.11%)
- 10th question: Mostly satisfied, patients (%) (Baseline): (16.30%)
- 10th question: Partly satisfied, patients (%) (Baseline): (32.26%)
- 11th question: Continuously worried, patients (%) (Baseline): (9.21%)
- 11th question: No worried, patients (%) (Baseline): (3.94%)
- 11th question: Occasionally worried, patients (%) (Baseline): (41.32%)
- 11th question: Often worried, patients (%) (Baseline): (25.10%)
- 11th question: Seldom worried, patients (%) (Baseline): (20.43%)
- SAQ 4th question, 1-2 times per week: % of patients (Baseline): (20.17%)
- SAQ 4th question, 1-2 times per week: number of patients (Baseline): 301
- SAQ 4th question, 1-3 times per day: % of patients (Baseline): (8.78%)
- SAQ 4th question, 1-3 times per day: number of patients (Baseline): 131
- SAQ 4th question, <1 time per week: % of patients (Baseline): (9.52%)
- SAQ 4th question, <1 time per week: number of patients (Baseline): 142
- SAQ 4th question, Not used: % of patients (Baseline): (43.16%)
- SAQ 4th question, Not used: number of patients (Baseline): 644
- SAQ 4th question, ≧3 times per week: % of patients (Baseline): (17.43%)
- SAQ 4th question, ≧3 times per week: number of patients (Baseline): 260
- SAQ 4th question, ≧4 times per day: % of patients (Baseline): (0.94%)
- SAQ 4th question, ≧4 times per day: number of patients (Baseline): 14
- SAQ 5th question, Few: % of patients (Baseline): (19.21%)
- SAQ 5th question, Few: number of patients (Baseline): 287
- SAQ 5th question, Mild: % of patients (Baseline): (31.26%)
- SAQ 5th question, Mild: number of patients (Baseline): 467
- SAQ 5th question, Moderate: % of patients (Baseline): (21.29%)
- SAQ 5th question, Moderate: number of patients (Baseline): 318
- SAQ 5th question, None: % of patients (Baseline): (22.02%)
- SAQ 5th question, None: number of patients (Baseline): 329
- SAQ 5th question, Not medicated by doctors: % of patients (Baseline): (3.01%)
- SAQ 5th question, Not medicated by doctors: number of patients (Baseline): 45
- SAQ 5th question, Severe: % of patients (Baseline): (3.21%)
- SAQ 5th question, Severe: number of patients (Baseline): 48
- SAQ 6th question, Dissatisfied: % of patients (Baseline): (1.14%)
- SAQ 6th question, Dissatisfied: number of patients (Baseline): 17
- SAQ 6th question, Highly satisfied: % of patients (Baseline): (14.90%)
- SAQ 6th question, Highly satisfied: number of patients (Baseline): 223
- SAQ 6th question, Mostly dissatisfied: % of patients (Baseline): (6.48%)
- SAQ 6th question, Mostly dissatisfied: number of patients (Baseline): 97
- SAQ 6th question, Mostly satisfied: % of patients (Baseline): (44.29%)
- SAQ 6th question, Mostly satisfied: number of patients (Baseline): 663
- SAQ 6th question, Partly satisfied: % of patients (Baseline): (33.20%)
- SAQ 6th question, Partly satisfied: number of patients (Baseline): 497
- SAQ 7th question, Dissatisfied: % of patients (Baseline): (0.33%)
- SAQ 7th question, Dissatisfied: number of patients (Baseline): 5
